Assay results published in patent US20140023611A1 (priority 2010, published 2014).
Values joined by “and” are separate entries in the source; they are usually repeats but may differ in a detail not shown here. Equal entries are not always repeated.

Legend:
rat NaP2b (SLC34A2) = target: T1, rat NaP2b (SLC34A2) (Rattus norvegicus, UniProt Q9JJ09); assay: Inhibition of NaP2b-mediated Pi (33P) uptake in transfected HEK293 cells, rat NaP2b; format: cell-based; conditions: 33P Pi uptake, 0.1 mM phosphate, value given as pIC50 range
T1 construct: host or cells: HEK293
T1 sequence (Q9JJ09 1-695): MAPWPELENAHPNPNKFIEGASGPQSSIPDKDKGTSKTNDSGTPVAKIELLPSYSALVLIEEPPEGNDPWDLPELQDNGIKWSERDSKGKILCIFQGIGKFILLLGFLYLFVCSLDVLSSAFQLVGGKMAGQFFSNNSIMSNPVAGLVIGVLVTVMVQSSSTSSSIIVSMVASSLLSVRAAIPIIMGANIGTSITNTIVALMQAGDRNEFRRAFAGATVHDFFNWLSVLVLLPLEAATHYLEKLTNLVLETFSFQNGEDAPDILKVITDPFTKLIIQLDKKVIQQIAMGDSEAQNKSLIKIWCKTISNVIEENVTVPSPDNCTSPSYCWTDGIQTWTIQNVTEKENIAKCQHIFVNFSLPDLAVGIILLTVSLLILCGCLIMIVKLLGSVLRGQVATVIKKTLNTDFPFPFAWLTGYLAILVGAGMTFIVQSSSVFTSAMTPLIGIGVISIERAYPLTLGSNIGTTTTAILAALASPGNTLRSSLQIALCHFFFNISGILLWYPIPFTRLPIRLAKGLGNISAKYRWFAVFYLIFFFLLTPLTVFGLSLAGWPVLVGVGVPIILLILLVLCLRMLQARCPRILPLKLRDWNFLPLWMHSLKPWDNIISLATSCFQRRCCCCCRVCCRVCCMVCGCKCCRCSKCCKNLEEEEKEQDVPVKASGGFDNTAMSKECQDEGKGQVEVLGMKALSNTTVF
Procedure, shortened: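 HEK293 cells were transiently transfected with NaP2b cDNA using Lipofectamine and grown near confluence. Compounds were tested at twelve concentrations from 0.1 nM to 30 uM in duplicate, and 33P-phosphate uptake was counted by scintillation after lysis. Results are expressed as pIC50.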

[1] = tested on: Uptake of Phosphorus from the Intestine; assay: In vivo co-dosing in chow (urine P out / P consumed); conditions: Rattus norvegicus, feed or water, rats, compound in chow, read-out: Mean % inhibition Urine Pout/P consumed; for inhibition in vivo at 120 mg/kg/day: mean drug dose 120 mg/kg/day; for inhibition in vivo at 100 mg/kg/day: mean drug dose 100 mg/kg/day
Procedure, shortened: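 Male 7-week-old rats were fed a synthetic diet (0.6% P, 0.6% Ca) for 4 days, then housed in metabolic cages with compound in chow at 1.3 mg/g (nominal 100 mg/kg/day). Urinary P was measured by ion chromatography over 24–96 h and related to dietary P consumed. Percentage inhibition was calculated against no-drug controls.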

[2] = Stability of compounds in simulated gastric fluid (SGF); format: in vitro ADME; conditions: simulated gastric fluid (3 mg/mL pepsin), incubation time 6 hr, relative to t=0
Procedure, shortened: (§1)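 Compounds at […] were incubated 3 or 6 hr in USP simulated gastric fluid with 3 mg/mL pepsin or simulated intestinal fluid with 3 mg/mL pancreatin. Remaining compound was quantified by HPLC-UV or HPLC-MS peak area % and reported as percent of the t=0 level in the same medium.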

[3] = Stability of compounds in simulated intestinal fluid (SIF); format: in vitro ADME; conditions: simulated intestinal fluid (3 mg/mL pancreatin), incubation time 6 hr, relative to t=0
Procedure, shortened: as §1

[4] = Fecal recovery of orally administered compounds; format: in vivo, Sprague-Dawley rats; conditions: Structure (I) examples, Table 16; rat, oral gavage, feces collected until 48 hr after dosing
Procedure, shortened: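 After oral dosing, feces collected in metabolic cages up to 48 h, lyophilized and ground. Duplicate weighed portions per animal extracted with organic solvent under non-compound-optimized conditions, so recovery may be a minimal estimate.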

| IC50 (rat NaP2b (SLC34A2)) | % remaining, SGF [2] | % remaining, SIF [3] | % recovered in feces [4] | SMILES | inhibition in vivo at 120 mg/kg/day [1] | inhibition in vivo at 100 mg/kg/day [1] | inhibition in vivo at 130 mg/kg/day ([1]; mean drug dose 130 mg/kg/day) | inhibition in vivo at 50 mg/kg/day ([1]; mean drug dose 50 mg/kg/day) |
| --- | --- | --- | --- | --- | --- | --- | --- | --- |
| < 1000 nM | >80% | >80% | <20% | CCN(CC)c1ccc(NC(=O)c2cccc(CSCCOCCOCCOCCOCCOCCOCCOCCOC)c2)c(-c2cc(C(=O)NCc3cccc(C(F)(F)F)c3)ccn2)c1 [Example 265, 2-(2-(3-(2,5,8,11,14,17,20,23-octaoxa-26-thiaheptacosan-27-yl)benzamido)-5-(diethylamino)phenyl)-N-(3-(trifluoromethyl)benzyl)isonicotinamide] | ≤ 10% | – | – | – |
| 1000 to 7940 nM | >80% | >80% | <20% | CCN(CC)c1ccc(NC(=O)c2cccc(CCCOCCOCCOCCOCCOCCOCCOCCOCCOC)c2)c(-c2cc(C(=O)NCc3cccc(C(F)(F)F)c3)ccn2)c1 [Example 269, 2-(2-(3-(2,5,8,11,14,17,20,23,26-nonaoxanonacosan-29-yl)benzamido)-5-(diethylamino)phenyl)-N-(3-(trifluoromethyl)benzyl)isonicotinamide] | – | ≤ 10% | – | – |
| < 1000 nM | >80% | >80% | 20-80% | CCN(CC)c1ccc(NC(=O)c2cccc(CSCCOCCOCCOCCOCCC(=O)O)c2)c(-c2cc(C(=O)NCc3cccc(C(F)(F)F)c3)ccn2)c1 [Example 162, 1-(3-(4-(diethylamino)-2-(4-(3-(trifluoromethyl)benzylcarbamoyl)pyridin-2-yl)phenylcarbamoyl)phenyl)-5,8,11,14-tetraoxa-2-thiaheptadecan-17-oic acid] | – | 10 to 30% | – | – |
| < 1000 nM | >80% | >80% | <20% | CCN(CC)c1ccc(NC(=O)c2cccc(CSCCOCCOCCOCCOCCOCCOCCOCCOC)c2)c(-c2cc(C(=O)N[C@H]3CCCc4ccccc43)ccn2)c1 [Example 286, (S)-2-(2-(3-(2,5,8,11,14,17,20,23-octaoxa-26-thiaheptacosan-27-yl)benzamido)-5-(diethylamino)phenyl)-N-(1,2,3,4-tetrahydronaphthalen-1-yl)isonicotinamide] | – | – | 10 to 30% | – |

The remaining lines, values behind:

| SMILES | IC50 (rat NaP2b (SLC34A2)) | % remaining, SGF [2] | % remaining, SIF [3] | % recovered in feces [4] | inhibition in vivo at 120 mg/kg/day [1] | inhibition in vivo at 100 mg/kg/day [1] | inhibition in vivo at 130 mg/kg/day ([1]; mean drug dose 130 mg/kg/day) | inhibition in vivo at 50 mg/kg/day ([1]; mean drug dose 50 mg/kg/day) |
| --- | --- | --- | --- | --- | --- | --- | --- | --- |
| CCN(CC)c1ccc(NC(=O)c2cccc(CSCCOCCOCCOCCOCCOCCOCCOCCOCCC(=O)O)c2)c(-c2cc(C(=O)NCc3cccc(C(F)(F)F)c3)ccn2)c1 [Example 166, 1-(3-(4-(diethylamino)-2-(4-(3-(trifluoromethyl)benzylcarbamoyl)pyridin-2-yl)phenylcarbamoyl)phenyl)-5,8,11,14,17,20,23,26-octaoxa-2-thianonacosan-29-oic acid] | 1000 to 7940 nM | >80% | >80% | >80% | 10 to 30% | – | – | – |
| O=C(O)CCOCCOCCOCCNC(=O)c1cccc2c1ccn2Cc1cccc(C(=O)Nc2ccc(N3CCCCC3)cc2-c2cc(C(=O)N[C@H]3CCCc4ccccc43)ccn2)c1 [Example 181, (S)-1-oxo-1-(1-(3-(4-(piperidin-1-yl)-2-(4-(1,2,3,4-tetrahydronaphthalen-1-ylcarbamoyl)pyridin-2-yl)phenylcarbamoyl)benzyl)-1H-indol-4-yl)-5,8,11-trioxa-2-azatetradecan-14-oic acid] | < 1000 nM | >80% | >80% | >80% | ≤ 10% | – | – | – |
| CCN(CC)c1ccc(NC(=O)c2cccc(CSCCOCCOCCOCCOCCOCCOCCOCCOCCC(=O)O)c2)c(-c2cc(C(=O)N[C@H]3CCCc4ccccc43)ccn2)c1 [Example 161, (S)-1-(3-(4-(diethylamino)-2-(4-(1,2,3,4-tetrahydronaphthalen-1-ylcarbamoyl)pyridin-2-yl)phenylcarbamoyl)phenyl)-5,8,11,14,17,20,23,26-octaoxa-2-thianonacosan-29-oic acid] | 1000 to 7940 nM | >80% | >80% | >80% | ≤ 10% | – | – | – |
| CCN(CC)c1ccc(NC(=O)c2cccc(CCCOCCOCCOCCOCCC(=O)O)c2)c(-c2cc(C(=O)NCc3cccc(C(F)(F)F)c3)ccn2)c1 [Example 251, 16-(3-(4-(diethylamino)-2-(4-(3-(trifluoromethyl)benzylcarbamoyl)pyridin-2-yl)phenylcarbamoyl)phenyl)-4,7,10,13-tetraoxahexadecan-1-oic acid] | 1000 to 7940 nM | >80% | >80% | >80% | – | – | – | ≤ 10% |
| CCN(CC)c1ccc(NC(=O)c2cccc(CCCOCCOCCOCCOCCOCCOCCOCCOCCOC)c2)c(-c2cc(C(=O)N[C@H]3CCCc4ccccc43)ccn2)c1 [Example 261, (S)-2-(2-(3-(2,5,8,11,14,17,20,23,26-nonaoxanonacosan-29-yl)benzamido)-5-(diethylamino)phenyl)-N-(1,2,3,4-tetrahydronaphthalen-1-yl)isonicotinamide] | < 1000 nM | >80% | 60-80% and >80% | <20% | – | 10 to 30% | – | – |
